Test systems include SNB-19 CNS; ACHN renal; HCT-15 colon; DU-145 prostate; SK-OV-3 ovarian; HCT-116 colon; MALME-3M melanoma; SF-539 CNS.
Common to all, as to assay: growth of human tumour cells (NCI), 48 h

Values joined by “and” are separate entries in the source; they are usually repeats but may differ in a detail not shown here. Equal entries are not always repeated.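 Step 1: Grow cells in 96-well plates. Step 2: Expose to compound for 48 hours at 5 concentrations. Step 3: Interpolate endpoints linearly; if unreached, use highest concentration. The concentration for 50% growth inhibition is given as GI50. At the TGI there is no net growth.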

On to `Clc1ccc(Nc2ncnc3ccccc23)cc1`, for which the GI50 in the assay with SNB-19 CNS is more than 100 µM; in the assay with ACHN renal it was 11.1 µM; in the assay with HCT-15 colon, 25.2 µM; in the assay on DU-145 prostate it was 26.4 µM; in the assay on SK-OV-3 ovarian it was 91.1 µM; in the assay with HCT-116 colon, 81.5 µM. The values for the GI50 with MALME-3M melanoma and in the assay with SF-539 CNS were 33.9 µM and more than 100 µM, respectively. In addition, the TGI in the assay on SNB-19 CNS is more than 100 µM; with ACHN renal, 71.7 µM; in the assay with HCT-15 colon, more than 100 µM; with DU-145 prostate, more than 100 µM; in the assay with SK-OV-3 ovarian, more than 100 µM; in the assay on HCT-116 colon, more than 100 µM. The TGI in the assay on MALME-3M melanoma and in the assay with SF-539 CNS was more than 100 µM each time.

As for `N#CC1(C#N)C2C=CC(C3CC=CC32)C1(C#N)C#N` (stereo not drawn), the TGI in the assay with SNB-19 CNS is more than 50 µM; in the assay on ACHN renal, 7.09 µM and 15.3 µM; in the assay on HCT-15 colon it was 4.17 µM and 35.9 µM; in the assay with DU-145 prostate it was 16.7 µM; in the assay on SK-OV-3 ovarian, more than 50 µM; in the assay on HCT-116 colon, 3.4 µM and 15.7 µM. In addition, the TGI in the assay on MALME-3M melanoma was 6.16 µM and 13.1 µM; in the assay on SF-539 CNS, 17.2 µM. Further, the GI50 in the assay on ACHN renal is 8.44 µM; in the assay on HCT-15 colon it was 13.2 µM; with HCT-116 colon it was 7.85 µM; with MALME-3M melanoma it was 6.13 µM.

Take `COc1c(O)cc2c(c1CC=C(C)C)OC(=O)c1c(cc(O)c(CC=C(C)C)c1O)O2`: the GI50 is 4.5 µM with SNB-19 CNS; 3.93 µM with ACHN renal; 3.95 µM with HCT-15 colon; 4.18 µM with DU-145 prostate; 4.44 µM in the assay on SK-OV-3 ovarian; 3.91 µM with HCT-116 colon. Moreover, the GI50 with MALME-3M melanoma is 4.62 µM; in the assay on SF-539 CNS, 4.46 µM. Also, the TGI in the assay on SNB-19 CNS worked out at 8.51 µM; in the assay with ACHN renal it was 7.49 µM; with HCT-15 colon, 8.94 µM; with DU-145 prostate, 7.62 µM; with SK-OV-3 ovarian, 8.01 µM; in the assay with HCT-116 colon it was 7.82 µM. Also, the TGI is 8.7 µM with MALME-3M melanoma and 8.52 µM in the assay with SF-539 CNS.

`O=C(/C=C/c1cccnc1)c1ccccc1`: the GI50 in the assay with SNB-19 CNS was 11.7 µM; in the assay on ACHN renal it was 4.51 µM; in the assay on HCT-15 colon it was 4.1 µM; in the assay with DU-145 prostate, 13.9 µM; in the assay with SK-OV-3 ovarian it was 14.6 µM; in the assay with HCT-116 colon, 2.14 µM. Besides, the GI50 in the assay with MALME-3M melanoma is 15.7 µM; with SF-539 CNS it was 13.3 µM. In addition, the TGI in the assay on SNB-19 CNS amounted to 25.2 µM; in the assay on ACHN renal, 17.1 µM; in the assay with HCT-15 colon, 20.2 µM; in the assay with DU-145 prostate, 26.9 µM; in the assay with SK-OV-3 ovarian, 27.9 µM; in the assay on HCT-116 colon it was 5.83 µM. The TGI in the assay with MALME-3M melanoma was 35.9 µM; with SF-539 CNS, 28.6 µM.

`ClCCN(CCCl)c1ccc(OCc2ccccc2)cc1`: the GI50 was 6.15 µM in the assay with SNB-19 CNS; 2.1 µM in the assay on ACHN renal; 5.11 µM in the assay with HCT-15 colon; 3.16 µM in the assay with DU-145 prostate; 7.85 µM in the assay on SK-OV-3 ovarian; 6.81 µM in the assay with HCT-116 colon. Also, the results for the GI50 in the assay on MALME-3M melanoma and in the assay on SF-539 CNS were 10.2 µM and 2.03 µM, respectively. The TGI in the assay on SNB-19 CNS is more than 100 µM; in the assay on ACHN renal, more than 100 µM; with HCT-15 colon, 84.1 µM; in the assay with DU-145 prostate it was 27.6 µM; in the assay with SK-OV-3 ovarian, 61.4 µM; in the assay with HCT-116 colon it was 26.9 µM. The TGI worked out at 34.4 µM in the assay on MALME-3M melanoma and 7.44 µM in the assay on SF-539 CNS.

On to `NNC(=S)N/N=C/c1ccccn1`, for which the GI50 in the assay on SNB-19 CNS is 3.57 µM; in the assay on ACHN renal it was 1.71 µM; with HCT-15 colon it was 1.03 µM; in the assay on DU-145 prostate it was 1.85 µM; in the assay on SK-OV-3 ovarian, 2.89 µM; in the assay with HCT-116 colon it was 1.66 µM. In addition, the GI50 in the assay with MALME-3M melanoma is 5.19 µM; in the assay with SF-539 CNS, 2.06 µM. The TGI with SNB-19 CNS, in the assay with ACHN renal, in the assay with HCT-15 colon, in the assay on DU-145 prostate, with SK-OV-3 ovarian and in the assay on HCT-116 colon was more than 100 µM each time. In addition, the TGI was more than 100 µM with MALME-3M melanoma and 9.32 µM in the assay with SF-539 CNS.

`Cc1ccc([I+]c2ccc(C)cc2)cc1`: the GI50 in the assay on SNB-19 CNS was 16.1 µM; in the assay with ACHN renal, 14.9 µM; in the assay on HCT-15 colon it was 59.5 µM; with DU-145 prostate it was 12 µM; with SK-OV-3 ovarian, 21.8 µM; in the assay on HCT-116 colon, 0.821 µM. For the same compound, the figures for the GI50 with MALME-3M melanoma and with SF-539 CNS were 1.97 µM and 16.4 µM, respectively. Moreover, the TGI in the assay with SNB-19 CNS, in the assay with ACHN renal, in the assay on HCT-15 colon, with DU-145 prostate, in the assay with SK-OV-3 ovarian and in the assay on HCT-116 colon was more than 100 µM in each case. Also, the figures for the TGI in the assay on MALME-3M melanoma and in the assay with SF-539 CNS were 44.8 µM and more than 100 µM, respectively.

As to `CCOC(=O)Nc1nc(-c2ccccc2)c(C)s1`, the TGI in the assay with SNB-19 CNS, in the assay with ACHN renal, in the assay on HCT-15 colon, in the assay on DU-145 prostate, with SK-OV-3 ovarian and in the assay with HCT-116 colon was more than 100 µM throughout. The TGI in the assay with MALME-3M melanoma and with SF-539 CNS was more than 100 µM in each case.

`COc1cc2c3c(n(CCCNC(C)(C)CO)c(=O)c2cc1OC)-c1cc2c(cc1C3=O)OCO2`: the GI50 was 1.83 µM in the assay with SNB-19 CNS; 0.331 µM in the assay with ACHN renal; 2.04 µM with HCT-15 colon; 0.819 µM in the assay with DU-145 prostate; 17.9 µM in the assay on SK-OV-3 ovarian; 0.35 µM in the assay on HCT-116 colon. The GI50 was 14.8 µM with MALME-3M melanoma and 0.356 µM in the assay with SF-539 CNS. In addition, the TGI in the assay on SNB-19 CNS was more than 61.2 µM; in the assay with ACHN renal, 14.3 µM; in the assay with HCT-15 colon, 16.6 µM; with DU-145 prostate, 16.3 µM; with SK-OV-3 ovarian, more than 68.2 µM; in the assay on HCT-116 colon it was 1.73 µM. In addition, the TGI with MALME-3M melanoma was determined as 51.1 µM; with SF-539 CNS it was 31.3 µM.

Consider `CCOC(=O)Cc1csc(Nc2nc(O)c(C3=c4ccccc4=NC3=O)s2)n1`, for which the GI50 in the assay on SNB-19 CNS was 38.4 µM; in the assay on ACHN renal, 23 µM; in the assay with HCT-15 colon, 27.4 µM; with DU-145 prostate it was 24.6 µM; with SK-OV-3 ovarian, 31.1 µM; in the assay with HCT-116 colon, 13.6 µM. In addition, the GI50 was 25.5 µM in the assay with MALME-3M melanoma and 60 µM with SF-539 CNS. In addition, the TGI in the assay on SNB-19 CNS is more than 100 µM; in the assay with ACHN renal, 47.3 µM; with HCT-15 colon, more than 100 µM; in the assay on DU-145 prostate it was 56.7 µM; in the assay with SK-OV-3 ovarian it was 67.6 µM; in the assay with HCT-116 colon, 26.5 µM. For the same compound, the TGI with MALME-3M melanoma was 78.4 µM; in the assay on SF-539 CNS it was more than 100 µM.
